In patent US9840513B2 (AbbVie S.à.r.l., priority 2015, dated 2017):

What was measured:
[1] = target: T1, F508delCFTR in primary hBE cells with F508del/F508del CFTR mutation (Homo sapiens, UniProt P13569, DEL508-508); experiment: Transepithelial Clamp Circuit on Human Bronchial Epithelial Cells Conductance Assay (hBE-TECC); format: cell-based; settings: for EC50: primary hBE cells F508del/F508del, 18-24 hours at 37° C., equivalent short circuit current, 6 concentrations; for Maximum % activity (%): relative to positive control (3 μM) coupled with control potentiator
T1 construct: cells isolated from CF patients with the homozygous mutation; endogenous in cells; host or cells: primary human bronchial epithelial (hBE) cells from F508del/F508del CF patients
T1 sequence (P13569 with tags, fused parts or gaps DEL508-508): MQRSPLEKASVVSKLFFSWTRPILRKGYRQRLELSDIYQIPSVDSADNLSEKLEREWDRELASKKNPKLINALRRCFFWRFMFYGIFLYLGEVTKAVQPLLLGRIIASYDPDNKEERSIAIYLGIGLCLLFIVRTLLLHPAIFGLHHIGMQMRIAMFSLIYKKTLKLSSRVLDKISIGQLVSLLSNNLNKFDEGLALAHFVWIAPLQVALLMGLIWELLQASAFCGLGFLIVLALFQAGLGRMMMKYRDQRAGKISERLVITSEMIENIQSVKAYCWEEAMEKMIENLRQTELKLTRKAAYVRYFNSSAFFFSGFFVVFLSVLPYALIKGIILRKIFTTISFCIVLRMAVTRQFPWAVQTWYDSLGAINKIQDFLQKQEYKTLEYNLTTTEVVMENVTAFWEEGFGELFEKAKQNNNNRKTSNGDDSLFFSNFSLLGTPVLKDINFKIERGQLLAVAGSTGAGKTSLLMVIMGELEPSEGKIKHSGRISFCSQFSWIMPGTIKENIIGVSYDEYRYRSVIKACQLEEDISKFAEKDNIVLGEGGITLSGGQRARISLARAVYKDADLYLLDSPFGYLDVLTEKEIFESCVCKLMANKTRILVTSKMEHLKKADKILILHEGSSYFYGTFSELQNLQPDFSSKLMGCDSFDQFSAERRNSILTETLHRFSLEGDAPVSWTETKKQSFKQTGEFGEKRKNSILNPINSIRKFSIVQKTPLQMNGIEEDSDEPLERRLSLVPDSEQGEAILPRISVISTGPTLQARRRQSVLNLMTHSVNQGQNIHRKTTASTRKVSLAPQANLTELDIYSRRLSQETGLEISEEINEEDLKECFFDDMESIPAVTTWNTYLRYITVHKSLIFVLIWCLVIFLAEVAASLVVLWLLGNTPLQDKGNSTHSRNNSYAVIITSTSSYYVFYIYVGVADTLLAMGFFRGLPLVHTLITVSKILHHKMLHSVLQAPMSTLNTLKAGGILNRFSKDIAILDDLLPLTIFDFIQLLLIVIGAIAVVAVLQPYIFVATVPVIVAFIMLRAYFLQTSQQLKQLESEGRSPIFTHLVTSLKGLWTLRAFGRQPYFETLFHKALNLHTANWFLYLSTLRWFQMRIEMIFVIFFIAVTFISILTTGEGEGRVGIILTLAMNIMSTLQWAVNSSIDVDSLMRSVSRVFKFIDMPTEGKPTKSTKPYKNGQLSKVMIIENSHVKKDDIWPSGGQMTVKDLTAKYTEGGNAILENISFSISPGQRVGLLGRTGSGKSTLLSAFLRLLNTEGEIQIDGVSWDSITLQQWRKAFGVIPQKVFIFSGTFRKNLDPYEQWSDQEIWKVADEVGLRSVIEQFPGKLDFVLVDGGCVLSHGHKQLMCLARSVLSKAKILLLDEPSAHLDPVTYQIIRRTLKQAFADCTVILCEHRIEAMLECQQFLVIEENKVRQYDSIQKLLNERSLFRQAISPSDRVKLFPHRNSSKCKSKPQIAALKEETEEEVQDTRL
How it was run: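 Primary F508del/F508del hBE cells grown 35 days at air-liquid interface, treated basolaterally with correctors 18-24 h at 37° C. Ieq (Vt/Rt) at 36.5° C, pH 7.4, after benzamil, forskolin 10 μM, control potentiator, bumetanide; 6 concentrations normalized to DMSO and 3 μM positive-control corrector, EC50 by 4-parameter fit.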

[2] = target: T2, F508delCFTR cell surface expression in CFBE41o-F508delCFTR-HRP cells (Homo sapiens, UniProt P13569, DEL508-508); experiment: Cell Surface Expression-Horse Radish Peroxidase (CSE-HRP) Assay; format: cell-based; settings: for EC50: CFBE41o-F508delCFTR-HRP cells, 18-24 hours at 33° C., 8-point curve, highest concentration 20 μM; for Maximum % activity (%): maximum at any tested concentration, normalized to on-plate positive control (3 μM)
T2 construct: fused on or other part: Horseradish peroxidase (HRP) reporter inserted in the fourth exofacial (extracellular) loop of CFTR; expression is doxycycline-inducible
T2 sequence (P13569 with tags, fused parts or gaps DEL508-508 limits assumed): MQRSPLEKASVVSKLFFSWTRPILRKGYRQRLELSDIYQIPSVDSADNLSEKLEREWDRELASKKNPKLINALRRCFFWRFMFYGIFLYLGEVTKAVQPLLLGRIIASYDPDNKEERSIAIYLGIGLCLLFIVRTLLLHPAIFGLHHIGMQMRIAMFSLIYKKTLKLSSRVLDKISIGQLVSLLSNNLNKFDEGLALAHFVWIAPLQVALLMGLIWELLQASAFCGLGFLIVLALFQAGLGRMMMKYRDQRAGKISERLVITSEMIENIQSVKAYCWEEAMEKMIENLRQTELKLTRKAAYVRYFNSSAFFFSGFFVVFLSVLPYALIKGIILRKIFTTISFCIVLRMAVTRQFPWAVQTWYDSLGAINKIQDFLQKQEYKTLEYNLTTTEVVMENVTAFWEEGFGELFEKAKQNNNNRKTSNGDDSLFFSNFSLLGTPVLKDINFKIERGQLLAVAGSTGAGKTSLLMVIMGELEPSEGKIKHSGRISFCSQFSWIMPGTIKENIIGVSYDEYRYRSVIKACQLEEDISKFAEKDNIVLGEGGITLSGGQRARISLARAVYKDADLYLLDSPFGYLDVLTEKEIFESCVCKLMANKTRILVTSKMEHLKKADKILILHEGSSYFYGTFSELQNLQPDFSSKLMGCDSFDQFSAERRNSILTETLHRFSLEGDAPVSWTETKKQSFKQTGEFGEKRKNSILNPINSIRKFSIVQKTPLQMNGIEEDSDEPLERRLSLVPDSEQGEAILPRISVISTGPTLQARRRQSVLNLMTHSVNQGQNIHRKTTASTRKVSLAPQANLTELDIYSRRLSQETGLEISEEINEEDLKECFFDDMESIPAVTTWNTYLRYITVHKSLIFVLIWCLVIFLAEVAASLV
T2 sequence (P13569 919-1480 limits assumed, stated change not applied): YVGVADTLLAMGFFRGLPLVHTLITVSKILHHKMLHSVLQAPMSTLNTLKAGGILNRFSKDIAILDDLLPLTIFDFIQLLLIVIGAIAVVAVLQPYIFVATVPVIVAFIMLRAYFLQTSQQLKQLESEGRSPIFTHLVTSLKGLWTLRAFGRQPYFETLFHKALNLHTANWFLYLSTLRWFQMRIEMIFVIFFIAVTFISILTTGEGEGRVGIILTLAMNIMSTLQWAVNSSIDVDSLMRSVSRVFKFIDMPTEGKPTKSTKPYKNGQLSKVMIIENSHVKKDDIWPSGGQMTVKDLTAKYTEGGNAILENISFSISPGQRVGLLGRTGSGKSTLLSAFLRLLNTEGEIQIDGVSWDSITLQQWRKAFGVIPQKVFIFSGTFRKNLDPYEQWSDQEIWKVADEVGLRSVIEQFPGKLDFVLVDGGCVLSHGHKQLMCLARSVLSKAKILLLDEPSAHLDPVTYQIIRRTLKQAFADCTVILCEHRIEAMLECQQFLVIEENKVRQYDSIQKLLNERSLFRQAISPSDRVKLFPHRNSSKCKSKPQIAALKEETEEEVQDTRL
How it was run: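 Correctors incubated 18-24 h at 33 °C on doxycycline-induced (0.5 μg/mL, 72 h) CFBE41o-F508delCFTR-HRP cells, 3-fold series from 20 μM. After DPBS washes, luminol luminescence read; activity expressed relative to DMSO and a 3 μM positive control, EC50 fitted from triplicate plates.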

Compound | EC50 [1] [nM] | Maximum % activity (%) [1] [%] | EC50 [2] [nM] | Maximum % activity (%) [2] [%]
COc1ccc2c(c1)O[C@@H](c1ccc(C(=O)N3CCOCC3)cn1)C[C@H]2NC(=O)[C@@]1(C)COc2cc3c(cc21)OC(F)(F)O3 [Example 220, (7R)-2,2-difluoro-N-{(2R,4R)-7-methoxy-2-[5-(morpholine-4-carbonyl)pyridin-2-yl]-3,4-dihydro-2H-1-benzopyran-4-yl}-7-methyl-6,7-dihydro-2H-furo[2,3-f][1,3]benzodioxole-7-carboxamide] | 10 | 94 | 10 | 112
COc1ccc2c(c1)O[C@@H](c1ccc(C(=O)NCC(O)CO)cn1)C[C@H]2NC(=O)[C@@]1(C)COc2cc3c(cc21)OC(F)(F)O3 (stereo partly drawn) [Example 243, 6-[(2R,4R)-4-{[(7R)-2,2-difluoro-7-methyl-6,7-dihydro-2H-furo[2,3-f][1,3]benzodioxole-7-carbonyl]amino}-7-methoxy-3,4-dihydro-2H-1-benzopyran-2-yl]-N-(2,3-dihydroxypropyl)pyridine-3-carboxamide] | 21 | 87 | 70 | 112
COc1ccc2c(c1)O[C@@H](c1ccc(C(=O)N3C[C@@H](O)[C@H](O)C3)cn1)C[C@H]2NC(=O)[C@@]1(C)COc2cc3c(cc21)OC(F)(F)O3 [Example 248, (7R)—N-[(2R,4R)-2-{5-[(3R,4R)-3,4-dihydroxypyrrolidine-1-carbonyl]pyridin-2-yl}-7-methoxy-3,4-dihydro-2H-1-benzopyran-4-yl]-2,2-difluoro-7-methyl-6,7-dihydro-2H-furo[2,3-f][1,3]benzodioxole-7-carboxamide] | 32 | 105 | 90 | 116
COc1ccc2c(c1)O[C@@H](c1cnc(N3C[C@@H](O)[C@H](O)C3)cn1)C[C@H]2NC(=O)[C@@]1(C)COc2cc3c(cc21)OC(F)(F)O3 [Example 250, (7R)—N-[(2R,4R)-2-{5-[(3R,4R)-3,4-dihydroxypyrrolidin-1-yl]pyrazin-2-yl}-7-methoxy-3,4-dihydro-2H-1-benzopyran-4-yl]-2,2-difluoro-7-methyl-6,7-dihydro-2H-furo[2,3-f][1,3]benzodioxole-7-carboxamide] | 1 | 95 | 20 | 135
COc1ccc2c(c1)O[C@@H](c1ccc(N3C[C@@H](O)[C@H](O)C3)nn1)C[C@H]2NC(=O)[C@@]1(C)COc2cc3c(cc21)OC(F)(F)O3 [Example 251, (7R)—N-[(2R,4R)-2-{6-[(3R,4R)-3,4-dihydroxypyrrolidin-1-yl]pyridazin-3-yl}-7-methoxy-3,4-dihydro-2H-1-benzopyran-4-yl]-2,2-difluoro-7-methyl-6,7-dihydro-2H-furo[2,3-f][1,3]benzodioxole-7-carboxamide] | 5 | 86 | 30 | 128
COc1ccc2c(c1)OC(c1ccc(OC[C@@H](O)CO)nn1)C[C@H]2NC(=O)[C@@]1(C)COc2cc3c(cc21)OC(F)(F)O3 (stereo partly drawn) [Example 252, (7R)—N-[(4R)-2-{6-[(2S)-2,3-dihydroxypropoxy]pyridazin-3-yl}-7-methoxy-3,4-dihydro-2H-1-benzopyran-4-yl]-2,2-difluoro-7-methyl-6,7-dihydro-2H-furo[2,3-f][1,3]benzodioxole-7-carboxamide] | 32 | 106 | 90 | 110
C[C@]1(C(=O)N[C@@H]2C[C@H]([C@H]3CC[C@H](C(=O)N4C[C@H](O)[C@@H](O)C4)CC3)Oc3cc(OC(F)(F)F)ccc32)COc2cc3c(cc21)OC(F)(F)O3 [Example 256, (7R)—N-[(2R,4R)-2-{trans-4-[(3S,4S)-3,4-dihydroxypyrrolidine-1-carbonyl]cyclohexyl}-7-(trifluoromethoxy)-3,4-dihydro-2H-1-benzopyran-4-yl]-2,2-difluoro-7-methyl-6,7-dihydro-2H-furo[2,3-f][1,3]benzodioxole-7-carboxamide] | 10 | 106 | 60 | 168
C[C@]1(C(=O)N[C@@H]2C[C@H]([C@H]3CC[C@H](C(=O)NCC(O)CO)CC3)Oc3cc(OC(F)(F)F)ccc32)COc2cc3c(cc21)OC(F)(F)O3 (stereo partly drawn) [Example 260, (7R)—N-[(2R,4R)-2-{trans-4-[(2,3-dihydroxypropyl)carbamoyl]cyclohexyl}-7-(trifluoromethoxy)-3,4-dihydro-2H-1-benzopyran-4-yl]-2,2-difluoro-7-methyl-6,7-dihydro-2H-furo[2,3-f][1,3]benzodioxole-7-carboxamide] | 69 | 129 | 130 | 174
C[C@]1(C(=O)N[C@@H]2C[C@H]([C@H]3CC[C@H](C(=O)NCCO)CC3)Oc3cc(OC(F)(F)F)ccc32)COc2cc3c(cc21)OC(F)(F)O3 [Example 261, (7R)-2,2-difluoro-N-[(2R,4R)-2-{trans-4-[(2-hydroxyethyl)carbamoyl]cyclohexyl}-7-(trifluoromethoxy)-3,4-dihydro-2H-1-benzopyran-4-yl]-7-methyl-6,7-dihydro-2H-furo[2,3-f][1,3]benzodioxole-7-carboxamide] | 21 | 104 | 60 | 157
CCCN(CCO)C(=O)[C@H]1CC[C@H]([C@H]2C[C@@H](NC(=O)[C@@]3(C)COc4cc5c(cc43)OC(F)(F)O5)c3ccc(OC(F)(F)F)cc3O2)CC1 [Example 263, (7R)-2,2-difluoro-N-[(2R,4R)-2-{trans-4-[(2-hydroxyethyl)(propyl)carbamoyl]cyclohexyl}-7-(trifluoromethoxy)-3,4-dihydro-2H-1-benzopyran-4-yl]-7-methyl-6,7-dihydro-2H-furo[2,3-f][1,3]benzodioxole-7-carboxamide] | 4 | 118 | 70 | 167
COc1ccc2c(c1)O[C@@H]([C@H]1CC[C@H](C(=O)N3C[C@H](O)[C@@H](O)C3)CC1)C[C@H]2NC(=O)[C@@]1(C)COc2cc3c(cc21)OC(F)(F)O3 [Example 281, (7R)—N-[(2R,4R)-2-{trans-4-[(3S,4S)-3,4-dihydroxypyrrolidine-1-carbonyl]cyclohexyl}-7-methoxy-3,4-dihydro-2H-1-benzopyran-4-yl]-2,2-difluoro-7-methyl-6,7-dihydro-2H-furo[2,3-f][1,3]benzodioxole-7-carboxamide] | 117 | 134 | 470 | 154
C[C@]1(C(=O)N[C@@H]2C[C@H](C3(C(=O)N4C[C@H](O)[C@@H](O)C4)CC3)Oc3cc(OC(F)(F)F)ccc32)COc2cc3c(cc21)OC(F)(F)O3 [Example 282, (7R)—N-[(2R,4R)-2-{1-[(3S,4S)-3,4-dihydroxypyrrolidine-1-carbonyl]cyclopropyl}-7-(trifluoromethoxy)-3,4-dihydro-2H-1-benzopyran-4-yl]-2,2-difluoro-7-methyl-6,7-dihydro-2H-furo[2,3-f][1,3]benzodioxole-7-carboxamide] | 282 | 100 | 1860 | 135
